Data from patent US10556907B2 (AbbVie Inc., priority 2015, dated 2020).
Structures can show the parent of a compound that is named as a salt.

Experiments:
Test in all cases: Method 1: intracellular Ca2+ release (FLIPR, Calcium 5) in recombinant CHO-K1 cells
Format in all cases: cell-based
[1] = target: T1, human S1PR5 receptor (Homo sapiens, UniProt Q9H228); conditions: agonist potency, determined with method 1 (symbols A-D); read-out: S1P5 EC50 range
T1 construct: host or cells: CHO-K1
In short: (§1)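 Agonist EC50; CHO-K1 + Gq/i5 + aequorin; Calcium 5 dye 1 h 37 °C, 45 min RT; serial-dilution compound add; FLIPR read; normalized to phospho-fingolimod.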

[2] = target: T2, human S1PR1 receptor (Homo sapiens, UniProt P21453); conditions: (1): determined with method 1; read-out: S1P1 EC50
T2 construct: host or cells: CHO-K1
T2 sequence (P21453 whole entry): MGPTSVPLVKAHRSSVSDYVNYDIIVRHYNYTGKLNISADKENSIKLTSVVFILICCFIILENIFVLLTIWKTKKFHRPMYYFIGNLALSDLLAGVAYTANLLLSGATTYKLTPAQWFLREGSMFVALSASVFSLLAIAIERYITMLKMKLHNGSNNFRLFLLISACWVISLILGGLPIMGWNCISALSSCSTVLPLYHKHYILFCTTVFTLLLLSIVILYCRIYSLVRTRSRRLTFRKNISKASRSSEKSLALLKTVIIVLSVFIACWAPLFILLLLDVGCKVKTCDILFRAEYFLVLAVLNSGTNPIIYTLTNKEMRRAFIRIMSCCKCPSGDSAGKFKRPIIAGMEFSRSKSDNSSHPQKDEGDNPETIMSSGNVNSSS
In short: as §1

[3] = target: T3, human S1PR4 receptor (Homo sapiens, UniProt O95977); conditions: (1): determined with method 1; read-out: S1P4 EC50
T3 construct: host or cells: CHO-K1
T3 sequence (O95977 1-384): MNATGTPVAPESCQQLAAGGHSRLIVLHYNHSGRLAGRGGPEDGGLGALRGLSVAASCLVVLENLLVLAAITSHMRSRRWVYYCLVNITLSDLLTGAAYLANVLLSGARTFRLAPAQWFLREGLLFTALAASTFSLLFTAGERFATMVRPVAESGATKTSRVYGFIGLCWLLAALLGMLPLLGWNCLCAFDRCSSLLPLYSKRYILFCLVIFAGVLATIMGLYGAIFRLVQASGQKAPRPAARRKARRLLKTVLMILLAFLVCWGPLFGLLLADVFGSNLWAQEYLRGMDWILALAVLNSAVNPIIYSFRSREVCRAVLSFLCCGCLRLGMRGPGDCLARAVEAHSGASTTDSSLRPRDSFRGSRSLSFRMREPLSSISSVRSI
In short: as §1

T1 sequence (Q9H228 whole entry): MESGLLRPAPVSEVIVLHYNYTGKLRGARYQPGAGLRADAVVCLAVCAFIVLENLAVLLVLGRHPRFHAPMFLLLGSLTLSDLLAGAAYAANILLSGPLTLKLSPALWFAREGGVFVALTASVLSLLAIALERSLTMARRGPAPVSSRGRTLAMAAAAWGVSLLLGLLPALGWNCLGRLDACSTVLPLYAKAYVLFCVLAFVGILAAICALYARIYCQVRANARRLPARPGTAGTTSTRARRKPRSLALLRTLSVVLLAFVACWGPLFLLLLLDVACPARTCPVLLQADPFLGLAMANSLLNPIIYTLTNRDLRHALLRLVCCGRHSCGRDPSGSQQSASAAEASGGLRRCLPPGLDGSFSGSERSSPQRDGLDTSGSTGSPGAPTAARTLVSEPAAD

SMILES	EC50 [1] [µM]	EC50 [2] [µM]	EC50 [3] [µM]
Cc1ccc(C)c(COc2ccc(-c3ncc4c(n3)CCN(CC(C)CC(=O)O)C4)cc2C)c1 (stereo not drawn) [Compound 311, 4-[2-[4-[(2,5-dimethylphenyl)methoxy]-3-methyl-phenyl]-7,8-dihydro-5H-pyrido[4,3-d]pyrimidin-6-yl]-3-methyl-butanoic acid 2,2,2-trifluoroacetic acid salt]	0.1 to 1	> 1	> 1
Cc1cc(-c2ncc3c(n2)CCN(C[C@H](C)CC(=O)O)C3)ccc1OCc1ccc(Cl)cc1 [Compound 318, (R)-4-(2-(4-((4-chlorobenzyl)oxy)-3-methylphenyl)-7,8-dihydropyrido[4,3-d]pyrimidin-6(5H)-yl)-3-methylbutanoic acid]	0.1 to 1	> 1	> 1
O=C(O)C1CCC(N2CCc3nc(-c4ccc(OCc5cccc(Cl)c5)cc4)ncc3C2)C1 (stereo not drawn) [Compound 288, 3-(2-(4-((3-chlorobenzyl)oxy)phenyl)-7,8-dihydropyrido[4,3-d]pyrimidin-6(5H)-yl)cyclopentanecarboxylic acid hydrochloride]	0.1 to 1	> 1	> 1
Cc1cc(-c2ncc3c(n2)CCN(CC(C)CC(=O)O)C3)ccc1OCc1cccc(C(F)(F)F)c1 (stereo not drawn) [Compound 302, 3-methyl-4-[2-[3-methyl-4-[[3-(trifluoromethyl)phenyl]methoxy]phenyl]-7,8-dihydro-5H-pyrido[4,3-d]pyrimidin-6-yl]butanoic acid 2,2,2-trifluoroacetic acid salt]	0.1 to 1	> 1	> 1
CC(CC(=O)O)CN1CCc2nc(-c3ccc(OCc4cccc(F)c4)cc3F)ncc2C1 (stereo not drawn) [Compound 289, 4-[2-[2-fluoro-4-[(3-fluorophenyl)methoxy]phenyl]-7,8-dihydro-5H-pyrido[4,3-d]pyrimidin-6-yl]-3-methyl-butanoic acid 2,2,2-trifluoroacetic acid salt]	0.1 to 1	> 1	> 1
Cc1cc(-c2ncc3c(n2)CCN(CC(C)CC(=O)O)C3)ccc1OCc1cccc(C)c1C (stereo not drawn) [Compound 300, 4-[2-[4-[(2,3-dimethylphenyl)methoxy]-3-methyl-phenyl]-7,8-dihydro-5H-pyrido[4,3-d]pyrimidin-6-yl]-3-methyl-butanoic acid 2,2,2-trifluoroacetic acid salt]	0.1 to 1	> 1	> 1
Cc1cc(C)cc(COc2ccc(-c3ncc4c(n3)CCN(CC(C)CC(=O)O)C4)c(F)c2)c1 (stereo not drawn) [Compound 313, 4-[2-[4-[(3,5-dimethylphenyl)methoxy]-2-fluoro-phenyl]-7,8-dihydro-5H-pyrido[4,3-d]pyrimidin-6-yl]-3-methyl-butanoic acid 2,2,2-trifluoroacetic acid salt]	0.1 to 1	> 1	> 1
CC(C)(CC(=O)O)CN1CCc2nc(-c3ccc(OCc4ccc(Cl)c(Cl)c4)cc3)ncc2C1 [Compound 217, 4-(2-(4-((3,4-dichlorobenzyl)oxy)phenyl)-7,8-dihydropyrido[4,3-d]pyrimidin-6(5H)-yl)-3,3-dimethylbutanoic acid]	0.1 to 1	> 1	> 1
CC(C(=O)O)N1CCc2nc(-c3ccc(OCc4ccc(Cl)cc4)cc3)ncc2C1 (stereo not drawn) [Compound 312, 2-(2-(4-((4-chlorobenzyl)oxy)phenyl)-7,8-dihydropyrido[4,3-d]pyrimidin-6(5H)-yl)propanoic acid]	0.1 to 1	> 1	> 1
Cc1cc(-c2ncc3c(n2)CCN(CC(C)CC(=O)O)C3)ccc1CCc1ccc(Cl)cc1 (stereo not drawn) [Compound 291, 4-(2-(4-(4-chlorophenethyl)-3-methylphenyl)-7,8-dihydropyrido[4,3-d]pyrimidin-6(5H)-yl)-3-methylbutanoic acid]	0.1 to 1	> 1	> 1
Cc1ccc(C(F)(F)F)cc1COc1ccc(-c2ncc3c(n2)CCN(CC(C)CC(=O)O)C3)c(F)c1 (stereo not drawn) [Compound 272, 4-[2-[2-fluoro-4-[[2-methyl-5-(trifluoromethyl)phenyl]methoxy]phenyl]-7,8-dihydro-5H-pyrido[4,3-d]pyrimidin-6-yl]-3-methyl-butanoic acid 2,2,2-trifluoroacetic acid salt]	0.01 to 0.1	> 1	> 1
C[C@H](CC(=O)O)CN1CCc2nc(-c3ccc(C(F)(F)Cc4ccc(Cl)cc4)cc3)ncc2C1 (single isomer, unassigned) [Compound 294, 4-(2-(4-(2-(4-chlorophenyl)-1,1-difluoroethyl)phenyl)-7,8-dihydropyrido[4,3-d]pyrimidin-6(5H)-yl)-3-methylbutanoic acid]	0.1 to 1	> 1	> 1
Cc1cc(-c2ncc3c(n2)CCN(CC(C)CC(=O)O)C3)ccc1OCc1ccc(F)cc1 (stereo not drawn) [Compound 269, 4-[2-[4-[(4-fluorophenyl)methoxy]-3-methyl-phenyl]-7,8-dihydro-5H-pyrido[4,3-d]pyrimidin-6-yl]-3-methyl-butanoic acid 2,2,2-trifluoroacetic acid salt]	0.01 to 0.1	> 1	> 1

Further lines, results first:

EC50 [1] [µM]	EC50 [2] [µM]	EC50 [3] [µM]	SMILES
0.1 to 1	> 1	> 1	O=C(O)C1(CCN2CCc3nc(-c4ccc(OCc5ccc(Cl)cc5)cc4)ncc3C2)CC1 [Compound 335, 1-(2-(2-(4-((4-chlorobenzyl)oxy)phenyl)-7,8-dihydropyrido[4,3-d]pyrimidin-6(5H)-yl)ethyl)cyclopropanecarboxylic acid]
0.1 to 1	> 1	< 1	Cc1cc(-c2ncc3c(n2)CCN(CC(C)CC(=O)O)C3)ccc1OCc1c(F)cccc1F (stereo not drawn) [Compound 316, 4-[2-[4-[(2,6-difluorophenyl)methoxy]-3-methyl-phenyl]-7,8-dihydro-5H-pyrido[4,3-d]pyrimidin-6-yl]-3-methyl-butanoic acid 2,2,2-trifluoroacetic acid salt]
0.1 to 1	> 1	> 1	CC(CC(=O)O)CN1CCc2nc(-c3ccc(/C=C/c4ccc(Cl)cc4)cc3)ncc2C1 (stereo not drawn) [Compound 297, 4-(2-(4-(4-chlorostyryl)phenyl)-7,8-dihydropyrido[4,3-d]pyrimidin-6(5H)-yl)-3-methylbutanoic acid]
0.1 to 1	> 1	> 1	O=C(O)CN1CCc2nc(-c3ccc(OCc4ccccc4)cc3)ncc2C1 [Compound 25, 2-(2-(4-(benzyloxy)phenyl)-7,8-dihydropyrido[4,3-d]pyrimidin-6(5H)-yl)acetic acid]
0.1 to 1	> 1	> 1	CC(CC(=O)O)CN1CCc2nc(-c3ccc(CCc4cccc(Cl)c4)cc3F)ncc2C1 (stereo not drawn) [Compound 292, 4-(2-(4-(3-chlorophenethyl)-2-fluorophenyl)-7,8-dihydropyrido[4,3-d]pyrimidin-6(5H)-yl)-3-methylbutanoic acid]
1 to 10	> 1	< 1	Cc1cc(-c2ncc3c(n2)CCN(CC(C)CC(=O)O)C3)ccc1CCc1cccc(Cl)c1 (stereo not drawn) [Compound 331, 4-(2-(4-(3-chlorophenethyl)-3-methylphenyl)-7,8-dihydropyrido[4,3-d]pyrimidin-6(5H)-yl)-3-methylbutanoic acid]
1 to 10	> 1	> 1	CC(CC(=O)O)CN1CCc2nc(-c3ccc(C(F)(F)Cc4cccc(Cl)c4)cc3)ncc2C1 (stereo not drawn) [Compound 328, 4-(2-(4-(2-(3-chlorophenyl)-1,1-difluoroethyl)phenyl)-7,8-dihydropyrido[4,3-d]pyrimidin-6(5H)-yl)-3-methylbutanoic acid]
1 to 10	> 1	> 1	O=C(O)C1CC(N2CCc3nc(C#Cc4ccccc4)c(F)cc3C2)C1 (stereo not drawn) [Compound 184, 3-(3-fluoro-2-(phenylethynyl)-7,8-dihydro-1,6-naphthyridin-6(5H)-yl)cyclobutanecarboxylic acid]
0.1 to 1	> 1	> 1	CCc1ccc(COc2ccc(-c3ncc4c(n3)CCN(CC(C)CC(=O)O)C4)cc2C)cc1 (stereo not drawn) [Compound 306, 4-[2-[4-[(4-ethylphenyl)methoxy]-3-methyl-phenyl]-7,8-dihydro-5H-pyrido[4,3-d]pyrimidin-6-yl]-3-methyl-butanoic acid 2,2,2-trifluoroacetic acid salt]
0.1 to 1	> 1	> 1	O=C(O)C1CC(N2CCc3nc(-c4ccc(OCc5ccc(Cl)cc5)cc4)ncc3C2)C1 (stereo not drawn) [Compound 287, 3-(2-(4-((4-chlorobenzyl)oxy)phenyl)-7,8-dihydropyrido[4,3-d]pyrimidin-6(5H)-yl)cyclobutanecarboxylic acid]
0.01 to 0.1	> 1	> 1	Cc1cc(-c2ncc3c(n2)CCN(CC(C)CC(=O)O)C3)ccc1OCc1ccccc1Cl (stereo not drawn) [Compound 262, 4-(2-(4-((2-chlorobenzyl)oxy)-3-methylphenyl)-7,8-dihydropyrido[4,3-d]pyrimidin-6(5H)-yl)-3-methylbutanoic acid]
